According to patent publication EP1790655B1, “Biologically active peptides” (CMS Peptides Patent Holding Company Limited, priority 2001, dated 2003):

Legend:
S180 sarcoma cells = test: growth of transplanted S180 sarcoma in mice; assay type: in vivo, BALB/c mice; conditions: 20mg/kg i.p. once per day from the day after transplanting
Description: (§1) Intraperitoneal injection, once per day. […] Treatment of all groups with testing substance lasted for 30 days or until the animal died unless otherwise specified.
The mice were killed by cervical vertebra dislocation. Vigorously growing and non-disrupted tumor masses were harvested and washed clean with sterile saline. The tissue was dispersed in saline to a homogenous cell suspension, in a ratio of 1 g tissue to 4 ml saline. […] Administration of test substance treatment started as described in section Method 1.
After the phagocytosis index study, the mice were killed by cervical vertebra dislocation. The liver, spleen, and cancer tissue were dissected, blotted dry, and weighed.

[1] = tested on: ascitic fluid type liver cancer H22; test: survival of mice with transplanted ascitic fluid type liver cancer H22; assay type: in vivo, BALB/c mice; conditions: 20mg/kg i.p. once per day from the day after transplanting, Kaplan-meier mean
Description: Intraperitoneal injection, once per day. […] The cyclophosphamide groups were treated on the next day after transplanting the cancer cells. Treatment of all groups with testing substance lasted for 30 days or until the animal died unless otherwise specified.
Stock H22 cells were incubated in DMEM/F12 medium supplemented with 10% fetal bovine serum, 37°C/5%CO2 for 72 hrs, then washed 3-4 times with Hank's solution at room temperature. Adjust cell concentration to 1-2 x 10^9 per litre with Hank's solution. 0.2ml of the cell suspension was implanted to the abdominal cavity of several BALB/c mice for 6-8 days. The mice were killed by cervical vertebra dislocation. Ascitic fluid of the mice was collected asceptically and the cell concentration adjusted to 1 x 10^6 per ml with Hank's solution. 0.2ml of the cell suspension was implanted into the abdominal cavity of healthy mice to generate the H22 carrying mouse model for ascitic fluid type liver cancer. Administration of test substance started as described in section Method 1. Survival data of the mice was recorded. If the animal survived longer than the experiment, the survival days was recorded as the duration of the experiment. […] The survival index was calculated according to the following formula: Survival index = (mean survival days of treatment group-mean survival days of control group)ömean survival days of control group x 100% [formula]

L1210 leukemia = test: survival of mice with transplanted L1210 leukemia; assay type: in vivo, DBA/2 mice; conditions: 20mg/kg i.p. once per day from the day after transplanting, Kaplan-meier mean
Excerpt: as §1
The mice were then killed by cervical vertebra dislocation and their ascitic fluid collected aseptically. […] Treatment started in the testing animals as described in section Method 1. Mean survival day was obtained by the Kaplan-meier method in the Survival option of the SPSS software. If the animal survived longer than the experiment, the survival days was entered as the duration of the experiment.

[2] = tested on: Masugi nephritis rat model; test: Masugi nephritis rat model; assay type: in vivo, Sprague Dawley (SD) rats; conditions: peptides 50µg/kg/day
Excerpt: The anti-serum was then exuded and isolated.
Whole blood was collected from 15 healthy SD rats.
3. […] Treatment started on the day of induction.
4. […] Adequate drinking water was supplied.

`O=P1(N(CCCl)CCCl)NCCCO1` (centres unmarked) [Cyclo-phos phamide, Cyclophosphamide] gave a Tumor weight (S180 sarcoma cells) of 0.68 ± 0.32 g, a Survival days [1] of 24.7 ± 10.2 days and a Survival days (L1210 leukemia) of 24.0 ± 5.3 days.
In the case of `C[C@]12CCC(=O)C=C1CC[C@@H]1[C@@H]2[C@@H](O)C[C@@]2(C)[C@H]1CC[C@]2(O)C(=O)CO` [hydrocortisone, Hydrocortisone], the “spleen index (mean spleen weight / mean body weight)” value ([2]; after three weeks of treatment, hydrocortisone 3.3mg/kg/day (halved after first week) i.p.) is reported as 4.5±1.4 x10-3 and the growth rate ([2]; nephritis rats, hydrocortisone 3.3mg/kg/day i.p.) is reported as “slower growth rate than normal”.
